# Reference: patent US11667651B2, “Aminopyridine derivatives as phosphatidylinositol phosphate kinase inhibitors” (HiberCell, Inc., priority 2017, dated 2023)
# Biological target: T1, PIP4K2A (Homo sapiens, UniProt P48426)
# T1 sequence (P48426 1-406): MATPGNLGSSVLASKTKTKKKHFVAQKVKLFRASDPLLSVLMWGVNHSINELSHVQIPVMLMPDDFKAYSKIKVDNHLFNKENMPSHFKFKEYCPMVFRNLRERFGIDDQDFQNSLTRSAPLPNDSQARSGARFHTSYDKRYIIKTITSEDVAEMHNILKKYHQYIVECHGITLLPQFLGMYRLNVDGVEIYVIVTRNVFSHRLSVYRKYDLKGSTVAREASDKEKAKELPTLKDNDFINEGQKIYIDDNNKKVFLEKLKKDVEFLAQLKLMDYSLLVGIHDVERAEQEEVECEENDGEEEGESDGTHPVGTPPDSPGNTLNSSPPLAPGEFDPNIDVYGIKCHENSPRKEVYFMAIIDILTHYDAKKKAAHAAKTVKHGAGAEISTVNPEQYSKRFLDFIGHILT
# Experiment: Kinase Assay PIP4K2 A (Table 2)
# Type: biochemical
# Set-up: 4 nM PIP4K2A (full length protein, SignalChem); purchased SignalChem
# Details: compounds listed under IC50 bins
# Method: Dilution series of the compounds were prepared in DMSO at 100 times the final assay concentration (n1=n0/3 in 10 points). The compounds were further diluted to three times the assay concentration in assay buffer (20 mM MOPS pH 7.2, 25 mM magnesium chloride, 0.005% Tween 20). 6 μL of the diluted compounds were added to a 384 well assay plate followed by 9 μL of a mix consisting of 4 nM PIP4K2A (full length protein, SignalChem) and 100 μM PI(5)P diC8 (Tebu-Bio). Enzyme and compounds were pre-incubated at room temperature for 15 minutes.
# Then 3 μL of a solution containing 60 μM ATP (Promega) in assay buffer was added to the wells containing compound and enzyme and mixing was performed by pipetting several times. The reaction was incubated at room temperature for 1 h. Then 18 μL of ADP-Glo™ Reagent (Promega) was added to stop the kinase reaction and deplete the unconsumed ATP, mixing was performed by pipetting several times. The plate was incubated at room temperature for 40 minutes before addition of 36 μL of Kinase Detection Reagent (Promega) to convert ADP to ATP and introduce luciferase and luciferin to detect ATP. The reaction was incubated at room temperature for 40 minutes before the luminescence was measured in a in a Victor 3V 1420 multilabel counter (Perkin Elmer).
# Percent inhibition of the compounds as compared to dimethyl sulfoxide treated control samples was calculated. Compound concentration versus percent inhibition were fitted to generate IC50 values.
row,SMILES,IC50 [µM]
1,"COc1ccc(CN2CCN(c3cncc(Nc4ccc(-c5ccc(C(=O)N(C)C)cc5)cn4)c3)C2=O)cc1 [Example 74, 4-(6-((5-(3-(4-methoxybenzyl)-2-oxoimidazolidin-1-yl)pyridin-3-yl)amino)pyridin-3-yl)-N,N-dimethylbenzamide]",0.001 to 0.01
2,"CN(C)C(=O)[C@H]1CC[C@H](c2ccc(Nc3cccnc3)nc2)CC1 [Example 7, (r,4r)-N,N-dimethyl-4-(6-(pyridin-3-ylamino)pyridin-3-yl)cyclohexane-1-carboxamide]",> 1
3,"CN(C)C(=O)c1ccc(-c2ccc(Nc3cncc(N4CCN(CC5CCCO5)C4=O)c3)nc2)cc1 (stereo not shown) [Example 77, N,N-dimethyl-4-(6-((5-(2-oxo-3-((tetrahydrofuran-2-yl)methyl)imidazolidin-1-yl)pyridin-3-yl)amino)pyridin-3-yl)benzamide]",0.01 to 0.1
4,"CN(C)C(=O)c1cc(F)c(-c2cnc(Nc3cncc(N4CCCC4=O)c3)cn2)cc1F [Example 22, 2,5-difluoro-N,N-dimethyl-4-(5-((5-(2-oxopyrrolidin-1-yl)pyridin-3-yl)amino)pyrazin-2-yl)benzamide]",> 1
5,"CN(C)C(=O)c1ccc(-c2cnc(Nc3cncc(N4CCCC4=O)c3)cn2)cc1F [Example 20, 2-fluoro-N,N-dimethyl-4-(5-((5-(2-oxopyrrolidin-1-yl)pyridin-3-yl)amino)pyrazin-2-yl)benzamide]",0.1 to 1
6,"CN(C)C(=O)c1ccc(-c2ccc(Nc3cncc(CC(=O)NCc4cccnc4)c3)nc2)cc1 [Example 56, N,N-dimethyl-4-(6-((5-(2-oxo-2-((pyridin-3-ylmethyl)amino)ethyl)pyridin-3-yl)amino)pyridin-3-yl)benzamide]",0.1 to 1
7,"COc1cncc(Nc2ccc(-c3ccc(C(=O)N(C)C)cc3)cn2)c1 [Example 39, 4-(6-((5-methoxypyridin-3-yl)amino)pyridin-3-yl)-N,N-dimethylbenzamide]",0.1 to 1
8,"O=C1CCCN1c1ccc(-c2ccc(Nc3cccnc3)nc2)cc1 [Example 82, 1-(4-(6-(pyridin-3-ylamino)pyridin-3-yl)phenyl)pyrrolidin-2-one]",0.1 to 1
9,"CN(C)C(=O)Cc1cncc(Nc2ccc(-c3ccc(C(=O)N(C)C)cc3)cn2)c1 [Example 218, 4-(6-((5-(2-(dimethylamino)-2-oxoethyl)pyridin-3-yl)amino)pyridin-3-yl)-N,N-dimethylbenzamide]",0.1 to 1
10,"CC(=O)Nc1ccc(-c2ccc(C(=O)N(C)C)cc2)cn1 [Example 220, 4-(6-acetamidopyridin-3-yl)-N,N-dimethylbenzamide]",> 1
11,"CN(C)C(=O)c1ccc(-c2ccc(Nc3cncc(C4(C(N)=O)CC4)c3)nc2)cc1 [Example 41, 4-(6-((5-(1-carbamoylcyclopropyl)pyridin-3-yl)amino)pyridin-3-yl)-N,N-dimethylbenzamide]",0.1 to 1
12,"O=C(c1ccc(-c2ccc(Nc3cccnc3)nc2)cc1)N1CCCC1 [Example 66, (4-(6-(pyridin-3-ylamino)pyridin-3-yl)phenyl)(pyrrolidin-1-yl)methanone]",> 1
13,"O=C(c1ccc(-c2ccc(Nc3cccnc3)nc2)cc1)N1CCC1 [Example 11, azetidin-1-yl(4-(6-(pyridin-3-ylamino)pyridin-3-yl)phenyl)methanone]",0.01 to 0.1
14,"CN(C)C(=O)c1ccc(-c2ccc(Nc3cncc(N4CCOCC4=O)c3)nc2)cc1 [Example 47, N,N-dimethyl-4-(6-((5-(3-oxomorpholino)pyridin-3-yl)amino)pyridin-3-yl)benzamide]",0.1 to 1
15,"CN(C)C(=O)c1ccc(-c2cnc(Nc3cccnc3)cn2)cc1 [Example 18, N,N-dimethyl-4-(5-(pyridin-3-ylamino)pyrazin-2-yl)benzamide]",0.1 to 1
16,"CN(C)C(=O)c1ccc(-c2cnc(Nc3cncc(N4CCN(Cc5ccccc5)C4=O)c3)cn2)cc1 [Example 23, 4-(5-((5-(3-benzyl-2-oxoimidazolidin-1-yl)pyridin-3-yl)amino)pyrazin-2-yl)-N,N-dimethylbenzamide]",0.001 to 0.01
